Where two headings read alike, the source gives them in different places.
Columns and labels:
[1] = test system: Du145; assay: Cytotoxicity assay (cell titer-glo and calcein AM), Du145; details: Du145, % error in parentheses
[2] = test system: mouse mammary normal epithelial control cell line; assay: Cytotoxicity assay, normal control cell line
[3] = test system: Hep3B; assay: Cytotoxicity assay (cell titer-glo and calcein AM), Hep3B; details: Hep 3B, % error in parentheses
[4] = test system: A549; assay: Cytotoxicity assay (cell titer-glo and calcein AM), A549; details: A549, % error in parentheses
[5] = test system: ADR-RES; assay: Cytotoxicity assay (cell titer-glo and calcein AM), ADR-RES; details: NCI/ADR RES, % error in parentheses
[6] = test system: SK-OV-3; assay: Cytotoxicity assay (cell titer-glo and calcein AM), SK-OV-3; details: SK-OV-3, % error in parentheses
[7] = test system: SF-268; assay: Cytotoxicity assay (cell titer-glo and calcein AM), SF-268; details: SF-268, % error in parentheses
[8] = test system: MCF7; assay: Cytotoxicity assay (cell titer-glo and calcein AM), MCF7
[9] = test system: NCI-H460; assay: Cytotoxicity assay (cell titer-glo and calcein AM), NCI-H460; details: NCI-H460, % error in parentheses
[10] = read-out: Cytotoxicity IC50, Du145, CTG, CTG (cell titer-glo) readout
[11] = read-out: Cytotoxicity IC50, Du145, calcein, calcein AM readout
[12] = read-out: Cytotoxicity IC50, NmuMG, CTG, CTG (cell titer-glo) readout, % error in parentheses
[13] = read-out: Cytotoxicity IC50, NmuMG, calcein, calcein AM readout, % error in parentheses
[14] = read-out: Cytotoxicity IC50, Hep 3B, CTG, CTG (cell titer-glo) readout
[15] = read-out: Cytotoxicity IC50, Hep 3B, calcein, calcein AM readout
[16] = read-out: Cytotoxicity IC50, A549, CTG, CTG (cell titer-glo) readout
[17] = read-out: Cytotoxicity IC50, A549, calcein, calcein AM readout
[18] = read-out: Cytotoxicity IC50, NCI/ADR RES, CTG, CTG (cell titer-glo) readout
[19] = read-out: Cytotoxicity IC50, NCI/ADR RES, calcein, calcein AM readout
[20] = read-out: Cytotoxicity IC50, SK-OV-3, CTG, CTG (cell titer-glo) readout
[21] = read-out: Cytotoxicity IC50, SK-OV-3, calcein, calcein AM readout
[22] = read-out: Cytotoxicity IC50, SF-268, CTG, CTG (cell titer-glo) readout
[23] = read-out: Cytotoxicity IC50, SF-268, calcein, calcein AM readout
[24] = read-out: Cytotoxicity IC50, MCF7, CTG, CTG (cell titer-glo) readout, % error in parentheses
[25] = read-out: Cytotoxicity IC50, MCF7, calcein, calcein AM readout, % error in parentheses
[26] = read-out: Cytotoxicity IC50, NCI-H460, CTG, CTG (cell titer-glo) readout
[27] = read-out: Cytotoxicity IC50, NCI-H460, calcein, calcein AM readout

Molecule	IC50 [1, 10] [µM]	IC50 [1, 11] [µM]	IC50 [2, 12] [µM]	IC50 [2, 13] [µM]	IC50 [3, 14] [µM]	IC50 [3, 15] [µM]	IC50 [4, 16] [µM]	IC50 [4, 17] [µM]	IC50 [5, 18] [µM]	IC50 [5, 19] [µM]	IC50 [6, 20] [µM]	IC50 [6, 21] [µM]	IC50 [7, 22] [µM]	IC50 [7, 23] [µM]	IC50 [8, 24] [µM]	IC50 [8, 25] [µM]	IC50 [9, 26] [µM]	IC50 [9, 27] [µM]
COc1cc2c(c(OC)c1OC)-c1ccc(OC)c(=O)cc1C(NC(=O)CN(OC)C1OCC(O)C(O)C1O)CC2 [Col17, L-xyloside]	8.48	> 10	> 10	> 10	> 10	> 10	9.4	> 10	> 10	> 10	> 10	> 10	5.93	9.72	6.22	5.09	5.17	5.61
COc1cc2c(c(OC)c1OC)-c1ccc(OC)c(=O)cc1[C@@H](NC(=O)CN(OC)[C@@H]1OC[C@@H](O)[C@H](O)[C@H]1O)CC2 [Col4, D-xyloside]	> 10	> 10	> 10	> 10	> 10	> 3.35	> 10	> 10	> 10	> 10	> 10	> 10	8.26	8.93	> 10	> 10	> 10	> 10
COc1cc2c(c(OC)c1OC)-c1ccc(OC)c(=O)cc1[C@@H](NC(=O)CN(OC)[C@@H]1OC[C@@H](O)[C@H](O)[C@@H]1O)CC2 [Col1, D-lyxoside]	1.97	2	> 10	6.49	3.5	3.69	2.91	1.21	2.63	1.91	4	4	3.86	4	1.9	1.33	4.51	3.93
COc1cc2c(c(OC)c1OC)-c1ccc(OC)c(=O)cc1[C@@H](NC(=O)CN(OC)[C@@H]1O[C@H](CSC(C)=O)[C@H](O)[C@H](O)[C@H]1O)CC2 [Col68, 6-deoxy-6-thio-acyl-D-galactoside]	4.19	1.73	9.83	9.44	5.22	7.92	4.77	7.67	4.88	2.04	4.5	2.43	3.85	3.27	2.42	2.54	4.41	3.12
COc1cc2c(c(OC)c1OC)-c1ccc(OC)c(=O)cc1[C@@H](NC(=O)CN(OC)[C@@H]1OC[C@@H](O)[C@@H](O)[C@H]1O)CC2 [Col5, D-riboside]	> 10	6.78	> 10	> 10	9.86	6.52	> 10	> 10	4.84	5.06	> 10	> 10	5.01	4.59	2.84	2.88	5.06	5.76
CCCCCCCCCC(=O)N[C@@H]1[C@@H](O)[C@H](N(CC(=O)N[C@H]2CCc3cc(OC)c(OC)c(OC)c3-c3ccc(OC)c(=O)cc32)OC)O[C@H](CO)[C@H]1O [Col60, 3-deoxy-3-N-decanoyl-D-glucosaminoside]	4.79	6.2	8.37	6.04	4.97	> 10	> 10	> 10	4.98	4.65	4.38	4.15	5.03	4.13	3.36	3.04	3.98	5.88
CCCCCCCCCC(=O)NC[C@H]1O[C@@H](N(CC(=O)N[C@H]2CCc3cc(OC)c(OC)c(OC)c3-c3ccc(OC)c(=O)cc32)OC)[C@H](O)[C@@H](O)[C@@H]1O [Col59, 6-deoxy-6-N-decanoyl-D-glucosaminoside]	5.28	7.09	> 10	8.43	5.7	7.36	8.14	> 10	5.16	7.97	5.08	7.11	5.53	9.44	5.51	6.19	4.95	5.21
COc1cc2c(c(OC)c1OC)-c1ccc(OC)c(=O)cc1C(NC(=O)CN(OC)C1OCC(O)C(O)C1O)CC2 [Col22, L-riboside]	2.38	> 10	> 10	> 10	2.44	3.95	4.22	9.44	2.23	3.56	4.84	4.84	4.16	4.86	4.27	2.87	1.16	2
mycaroside [Col49]	5.2	8.56	> 10	8.84	9.76	> 10	> 10	> 10	5.38	> 10	> 10	> 10	9.94	7.86	4.38	5.21	≥ 10	9.31
